Experimental data from patent US20150165400A1, “CRYSTALLISATION PROCESS” (University of Bradford, priority 2012, published 2015).

How the values were obtained:
[1] = Stability study of triclinic form recrystallised from cyclohexane, PXRD; format: physicochemical; conditions: recrystallised from cyclohexane at 80° C., vacuum dried
Description: The product obtained was vacuum dried and the crystal form was confirmed by PXRD.

[2] = Pharmacokinetic study of artemisinin, plasma level by HPLC; format: in vivo, albino wistar rats; conditions: rats, 100 mg artemisinin in 0.5% aqueous CMC
Description: A pharmacokinetic study of artemisinin was carried out. The study was performed using 36 healthy albino wistar rats with a weight ranging from 180 to 200 grams. The wistar rats were taken and divided into three groups; a control group, the orthorhombic crystal form group and the triclinic crystal form group. A sparse technique was used to collect blood samples (n=6). The animals were housed in standard metabolism cages and were subject to fasting conditions for 12 hours before dosing. The animals were allowed free movement and access to water throughout the experiment. […] At predetermined time intervals, blood samples were obtained by the retro orbital technique and collected in EDTA tubes. Plasma was obtained by centrifugation of the blood sample at 3500 revolutions per minute (rpm) for 15 minutes. A volume of 200 μl of plasma was pipetted into Eppendorf tubes and 100 μl of internal standard (artemether solution […]) and 700 μl methanol were added. […] The collected sample was then subjected to analysis by HPLC. […] The HPLC system consisted of an Agilent 1200 series, UV detector (Agilent Technologies, […], Wokingham, United Kingdom) set at 210 nm and a C18 column (250×4.6 mm). […] The plasma concentration-time profiles were plotted and Areas Under Curve (AUC) were calculated (shown in FIG. 35) using the Trapezoidal rule.

[3] = Effect of externally added solvents on extruded triclinic form, stability by PXRD; format: physicochemical
Description: Effect of different solvents such as acetone, ethanol, cyclohexane, methanol and water on extruded triclinic form was studied. […] FIGS. 21 to 25 show the PXRD patterns highlighting the effect of adding the different solvents to extrude. It was observed that conversion rate from triclinic to orthorhombic form was proportional to solubility of orthorhombic form in each solvent.

[4] = In-vitro dissolution profile, USP-XXVI paddle method; format: physicochemical; conditions: water, 600 ml, 75 rpm, 37° C., 20 mg artemisinin

**Q.** For C[C@@H]1CC[C@H]2[C@@H](C)C(=O)O[C@@H]3O[C@@]4(C)CC[C@@H]1[C@]32OO4 [artemisinin], which “stability of crystal form (transformation to orthorhombic form)” value [1] is on record?
**A.** transformed to orthorhombic form within a week

**Q.** Which results are given for C[C@@H]1CC[C@H]2[C@@H](C)C(=O)O[C@@H]3O[C@@]4(C)CC[C@@H]1[C@]32OO4 [orthorhombic form, artemisinin, reference compound]?
**A.** average maximum concentration (Cmax) ([2]; oral, plasma): 16000 ng/mL; average time where the concentration reached a maximum (Tmax) ([2]; oral, plasma): 4 h

**Q.** Which results are given for C[C@@H]1CC[C@H]2[C@@H](C)C(=O)O[C@@H]3O[C@@]4(C)CC[C@@H]1[C@]32OO4 [triclinic form, artemisinin]?
**A.** rank order of transformation from triclinic to orthorhombic form ([3]; 0.2 ml solvent added to 3 g extruded sample): acetone>methanol>ethanol>cyclohexane>water; transformation to orthorhombic form in the sample containing water ([3]; 0.2 ml water added to 3 g extruded sample): no transformation was observed; dissolution rate in comparison with starting material [4]: four times greater; Cmax ([2]; albino Wistar, rat, plasma, po, 100 mg, plasma, read-out: average maximum concentration (Cmax)): 31000 ng/mL; Tmax ([2]; albino Wistar, rat, plasma, po, 100 mg, plasma, read-out: average time where the concentration reached a maximum (Tmax)): 5 h; AUC compared with the orthorhombic form ([2]; oral): two fold increase
